Experimental data reported in patent US12522596B2, “Compounds as GLP-1R agonists” (Terns Pharmaceuticals, Inc., priority 2021, dated 2026).
Where two headings read alike, the source gives them in different places.

Test: Pharmacokinetics in hGLP-1R mice after oral dosing
Type: in vivo, male C57BL/6J hGLP-1R mouse
Conditions: male, C57BL/6J hGLP-1R, mouse, plasma, po; for AUC0-inf: read-out: AUC0-inf; for MRT inf: read-out: MRT0-inf; for MRT last: read-out: MRT0-last; for concentration at 120 min: hGLP-1R mouse plasma collected at 120 min (IPGTT cohort)
Description: IPGTT (120 min)—PK bleeding: 40 μL blood samples (all treatment groups) were collected from mice under the jaw at IPGTT-120 min after blood glucose measurement into pre-chilled EDTA-2K tubes. Blood samples were processed for plasma by centrifugation at 4° C., 3200×g for 10 min. 15 μL plasma was stored at −80° C. for PK analysis. From 4 mice in Group 7 of the PD cohort, whole brain was collected after blood is harvested at 120 min post dose, rinsed with saline and patted dry and placed into a pre-weighed tube and stored at −80° C. collected for PK analysis.
PK bleeding group design is described in Table 9.
PK bleeding: 30 μL blood was collected at 0.25, 0.5, 1, 2, 4, and 8 h. Blood samples were processed for plasma by centrifugation at 4° C., 3200×g for 10 min. 12 μL plasma was collected at −80° C. for further analysis. From 3 mice in Group 7 of the PK cohort, whole brain was collected after blood is harvested at 8 hr post dose, rinsed with saline and patted dry and placed into a pre-weighed tube and stored at −80° C. collected for PK analysis.
For plasma: An aliquot of 3 μL sample was protein precipitated with 60 μL internal standard (100 ng/mL Labetalol & 100 ng/ml Dexamethasone & 100 ng/ml Tolbutamide & 100 ng/mL Verapamil & 100 ng/ml Glyburide & 100 ng/ml Celecoxib in ACN) and then the mixture was vortex-mixed for 10 min at 800 rpm and centrifuged for 15 min at 3220×g, 4° C.
The linear/log trapezoidal rule was applied in obtaining the PK parameters. Individual plasma concentration values that were below the lower limit of quantitation (LOQ) were excluded from the PK parameter calculation. The nominal dose levels and nominal sampling times were used in the calculation of all pharmacokinetic parameters.

[1] = 0.3 mg/kg, hGLP-1R mouse plasma, PO 0.3 mg/kg, read-out: Mean Concentration
[2] = 0.3 mg/kg, hGLP-1R mouse plasma, PO 0.3 mg/kg, individual animals, read-out: Concentration
[3] = 0.3 mg/kg, hGLP-1R mouse plasma, PO 0.3 mg/kg, mean
[4] = 1 mg/kg, hGLP-1R mouse plasma, PO 1 mg/kg, individual animals, read-out: Concentration
[5] = 1 mg/kg, hGLP-1R mouse plasma, PO 1 mg/kg, read-out: Mean Concentration
[6] = 1 mg/kg, hGLP-1R mouse plasma, PO 1 mg/kg, individual mice
[7] = 1 mg/kg, hGLP-1R mouse plasma, PO 1 mg/kg, mean
[8] = 3 mg/kg, hGLP-1R mouse plasma, PO 3 mg/kg, read-out: Mean Concentration
[9] = 3 mg/kg, hGLP-1R mouse plasma, PO 3 mg/kg, mean

`N#Cc1ccc(COc2cccc(C3CCN(Cc4nc5ccc(C(=O)O)cc5n4Cc4cncs4)CC3)n2)c(F)c1` [Compound 2] showed a concentration at 0.5 h [1] of 80.6 ng/mL, a concentration at 1 h [2] of 43.3 ng/mL and a concentration at 1 h [1] of 49.4 ng/mL. For the same molecule, the concentration at 2 h (0.3 mg/kg, hGLP-1R mouse plasma, PO 0.3 mg/kg) was 10.6 ng/mL, the concentration at 4 h [1] was 3.74 ng/mL and the concentration at 8 h [2] was 2.34 ng/mL. It also gave a concentration at 8 h [1] of 1.99 ng/mL, an AUC0-inf (0.3 mg/kg, hGLP-1R mouse plasma, PO 0.3 mg/kg, individual mice) of 124 ng·h/mL and an AUC(0-t) (0.3 mg/kg, hGLP-1R mouse plasma, PO 0.3 mg/kg, individual mice, read-out: AUC0-last) of 117 ng·h/mL. For the same molecule, the Cmax (0.3 mg/kg, hGLP-1R mouse plasma, PO 0.3 mg/kg, individual mice, read-out: Cmax) was 63.4 ng/mL, the Tmax (0.3 mg/kg, hGLP-1R mouse plasma, PO 0.3 mg/kg, individual mice, read-out: Tmax) was 0.5 h and the AUC0-inf [3] was 111 ng·h/mL. It also gave an AUC(0-t) (0.3 mg/kg, hGLP-1R mouse plasma, PO 0.3 mg/kg, mean, read-out: AUC0-last) of 107 ng·h/mL, a Cmax (0.3 mg/kg, hGLP-1R mouse plasma, PO 0.3 mg/kg, mean, read-out: Cmax) of 82.7 ng/mL and an MRT inf [3] of 1.7 h. The MRT last [3] was 1.4 h, the half-life (0.3 mg/kg, hGLP-1R mouse plasma, PO 0.3 mg/kg, mean, read-out: T1/2 (converted)) was 1.4 h and the Tmax (0.3 mg/kg, hGLP-1R mouse plasma, PO 0.3 mg/kg, mean, read-out: Tmax) was 0.417 h. The AUC(0-t) (1 mg/kg, hGLP-1R mice, total, PO 1.0 mg/kg, read-out: AUClast Mean) was 390 ng·h/mL, the Cmax (1 mg/kg, hGLP-1R mice, total, PO 1.0 mg/kg, read-out: Cmax Mean) was 283 ng/mL and the half-life (1 mg/kg, hGLP-1R mice, total, PO 1.0 mg/kg, read-out: T1/2 (converted)) was 1.42 h. For the same molecule, the Tmax (1 mg/kg, hGLP-1R mice, total, PO 1.0 mg/kg, read-out: Tmax Median) was 0.5 h, the concentration at 120 min (1 mg/kg, PO 1 mg/kg, read-out: Mean Concentration) was 69.8 ng/mL and the concentration at 0.25 h [4] was 320 ng/mL. The concentration at 0.25 h [5] was 251 ng/mL, the concentration at 0.5 h [4] was 329 ng/mL and the concentration at 0.5 h [5] was 283 ng/mL. For the same molecule, the concentration at 1 h [4] was 252 ng/mL, the concentration at 1 h [5] was 197 ng/mL and the concentration at 2 h (1 mg/kg, hGLP-1R mouse plasma, PO 1 mg/kg) was 48.6 ng/mL. The concentration at 4 h [4] was 7.58 ng/mL, the concentration at 4 h [5] was 7.51 ng/mL and the concentration at 8 h [5] was 4.73 ng/mL. It also gave an AUC0-inf [6] of 507 ng·h/mL, an AUC(0-t) (1 mg/kg, hGLP-1R mouse plasma, PO 1 mg/kg, individual mice, read-out: AUC0-last) of 498 ng·h/mL and a Cmax (1 mg/kg, hGLP-1R mouse plasma, PO 1 mg/kg, individual mice, read-out: Cmax) of 329 ng/mL. The MRT inf [6] was 1.47 h, the MRT last [6] was 1.32 h and the half-life (1 mg/kg, hGLP-1R mouse plasma, PO 1 mg/kg, individual mice, read-out: T1/2 (converted)) was 1.28 h. The Tmax (1 mg/kg, hGLP-1R mouse plasma, PO 1 mg/kg, individual mice, read-out: Tmax) was 0.5 h, the AUC0-inf [7] was 400 ng·h/mL and the AUC(0-t) (1 mg/kg, hGLP-1R mouse plasma, PO 1 mg/kg, mean, read-out: AUC0-last) was 390 ng·h/mL. The Cmax (1 mg/kg, hGLP-1R mouse plasma, PO 1 mg/kg, mean, read-out: Cmax) was 283 ng/mL, the MRT inf [7] was 1.57 h and the MRT last [7] was 1.35 h. The half-life (1 mg/kg, hGLP-1R mouse plasma, PO 1 mg/kg, mean, read-out: T1/2 (converted)) was 1.42 h, the Tmax (1 mg/kg, hGLP-1R mouse plasma, PO 1 mg/kg, mean, read-out: Tmax) was 0.5 h and the Tmax (3 mg/kg, hGLP-1R mice, oral, across the doses tested (0.3, 1 and, for Compound 2, 3 mg/kg), read-out: median Tmax) was 0.5 h. For the same molecule, the AUC(0-t) (3 mg/kg, hGLP-1R mice, total, PO 3.0 mg/kg, read-out: AUClast Mean) was 2440 ng·h/mL, the Cmax (3 mg/kg, hGLP-1R mice, total, PO 3.0 mg/kg, read-out: Cmax Mean) was 1820 ng/mL and the half-life (3 mg/kg, hGLP-1R mice, total, PO 3.0 mg/kg, read-out: T1/2 (converted)) was 2.03 h. The Tmax (3 mg/kg, hGLP-1R mice, total, PO 3.0 mg/kg, read-out: Tmax Median) was 0.5 h, the concentration at 120 min (3 mg/kg, PO 3 mg/kg, read-out: Mean Concentration) was 277 ng/mL and the concentration at 0.25 h [8] was 1570 ng/mL. For the same molecule, the concentration at 0.5 h [8] was 1790 ng/mL, the concentration at 1 h [8] was 990 ng/mL and the concentration at 2 h (3 mg/kg, hGLP-1R mouse plasma, PO 3 mg/kg) was 304 ng/mL. For the same molecule, the concentration at 4 h [8] was 84.4 ng/mL, the concentration at 8 h (3 mg/kg, hGLP-1R mouse plasma, PO 3 mg/kg, individual animals, read-out: Concentration) was 92.1 ng/mL and the concentration at 8 h [8] was 47.5 ng/mL. The MRT last (3 mg/kg, hGLP-1R mouse plasma, PO 3 mg/kg, individual mice) was 2.04 h, the Tmax (3 mg/kg, hGLP-1R mouse plasma, PO 3 mg/kg, individual mice, read-out: Tmax) was 0.5 h and the AUC0-inf [9] was 2620 ng·h/mL. The AUC(0-t) (3 mg/kg, hGLP-1R mouse plasma, PO 3 mg/kg, mean, read-out: AUC0-last) was 2440 ng·h/mL, the Cmax (3 mg/kg, hGLP-1R mouse plasma, PO 3 mg/kg, mean, read-out: Cmax) was 1820 ng/mL and the MRT inf [9] was 2.64 h. The MRT last [9] was 1.66 h, the half-life (3 mg/kg, hGLP-1R mouse plasma, PO 3 mg/kg, mean, read-out: T1/2 (converted)) was 2.03 h and the Tmax (3 mg/kg, hGLP-1R mouse plasma, PO 3 mg/kg, mean, read-out: Tmax) was 0.417 h. The half-life (hGLP-1R male mice, oral, across doses, read-out: terminal T1/2) was < 2 h.
